Where a name gives a salt, the structure may show the parent alone.
Legend:
Type in all cases: biochemical
[1] = target: T1, recombinant human MAO-B (monoamine oxidase-B) (Homo sapiens, UniProt P27338); test: Activity on recombinant human MAO-B, Amplex Red method, 1 mM benzylamine substrate; details: 1 mM benzylamine, read-out: Inhibitory Activity (IC50, nM) MAO-B
T1 construct: purchased Sigma-Aldrich
T1 sequence (P27338 1-520): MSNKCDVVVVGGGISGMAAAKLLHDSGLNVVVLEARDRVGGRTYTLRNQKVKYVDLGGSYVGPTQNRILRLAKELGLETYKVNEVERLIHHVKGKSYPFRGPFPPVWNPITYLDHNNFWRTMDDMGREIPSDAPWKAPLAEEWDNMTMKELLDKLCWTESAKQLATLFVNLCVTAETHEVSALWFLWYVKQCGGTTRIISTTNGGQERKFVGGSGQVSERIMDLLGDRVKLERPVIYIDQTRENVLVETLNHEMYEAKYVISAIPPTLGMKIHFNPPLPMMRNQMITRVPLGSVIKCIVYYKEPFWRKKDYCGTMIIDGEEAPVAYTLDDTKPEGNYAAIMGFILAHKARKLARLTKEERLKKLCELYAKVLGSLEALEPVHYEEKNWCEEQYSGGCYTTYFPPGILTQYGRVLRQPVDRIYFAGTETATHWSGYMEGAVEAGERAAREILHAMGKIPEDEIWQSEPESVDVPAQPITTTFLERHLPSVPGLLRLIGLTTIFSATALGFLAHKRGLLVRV
Summary of the method: (§1)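 Enzyme in pH 7.4 phosphate buffer; 30 min, 37° C with compound (DMSO <1%); start with 200 uM Amplex Red + 1 U/mL HRP + tyramine 0.5 mM (MAO-A) or benzylamine 1 mM (MAO-B); kinetic read ex 544/em 590, 1-2 h; % rate decrease vs DMSO control → IC50, 4-parameter fit.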

[2] = target: T2, recombinant human MAO-A (monoamine oxidase-A) (Homo sapiens, UniProt P21397); test: Activity on recombinant human MAO-A, Amplex Red method, 0.5 mM tyramine substrate; details: 0.5 mM tyramine, read-out: Inhibitory Activity (IC50, nM) MAO-A
T2 construct: purchased Sigma-Aldrich
T2 sequence (P21397 1-527): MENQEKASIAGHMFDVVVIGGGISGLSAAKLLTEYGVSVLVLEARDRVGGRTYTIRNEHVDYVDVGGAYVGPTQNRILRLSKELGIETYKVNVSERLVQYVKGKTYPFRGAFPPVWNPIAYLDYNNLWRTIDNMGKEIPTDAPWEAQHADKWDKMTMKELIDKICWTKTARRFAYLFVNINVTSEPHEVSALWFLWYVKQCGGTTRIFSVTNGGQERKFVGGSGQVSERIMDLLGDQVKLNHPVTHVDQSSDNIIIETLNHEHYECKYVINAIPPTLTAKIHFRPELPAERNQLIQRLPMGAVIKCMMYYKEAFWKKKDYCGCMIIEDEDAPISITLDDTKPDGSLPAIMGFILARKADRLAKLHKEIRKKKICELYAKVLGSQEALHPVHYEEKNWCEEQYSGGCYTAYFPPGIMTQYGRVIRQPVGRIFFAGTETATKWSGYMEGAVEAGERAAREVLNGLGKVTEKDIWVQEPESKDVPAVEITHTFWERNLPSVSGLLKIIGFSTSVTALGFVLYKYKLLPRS
Summary of the method: as §1

recombinant human VAP-1 = target: T3, recombinant human VAP-1 (Homo sapiens, UniProt Q16853); test: Activity on recombinant human VAP-1, Amplex Red HRP-coupled hydrogen peroxide assay, benzylamine substrate; details: recombinant human VAP-1, benzylamine substrate, 30 min preincubation at 37° C.; read-out: Inhibitory Activity (IC50, nM) human VAP-1
T3 construct: purchased R&D systems
T3 sequence (Q16853 1-763): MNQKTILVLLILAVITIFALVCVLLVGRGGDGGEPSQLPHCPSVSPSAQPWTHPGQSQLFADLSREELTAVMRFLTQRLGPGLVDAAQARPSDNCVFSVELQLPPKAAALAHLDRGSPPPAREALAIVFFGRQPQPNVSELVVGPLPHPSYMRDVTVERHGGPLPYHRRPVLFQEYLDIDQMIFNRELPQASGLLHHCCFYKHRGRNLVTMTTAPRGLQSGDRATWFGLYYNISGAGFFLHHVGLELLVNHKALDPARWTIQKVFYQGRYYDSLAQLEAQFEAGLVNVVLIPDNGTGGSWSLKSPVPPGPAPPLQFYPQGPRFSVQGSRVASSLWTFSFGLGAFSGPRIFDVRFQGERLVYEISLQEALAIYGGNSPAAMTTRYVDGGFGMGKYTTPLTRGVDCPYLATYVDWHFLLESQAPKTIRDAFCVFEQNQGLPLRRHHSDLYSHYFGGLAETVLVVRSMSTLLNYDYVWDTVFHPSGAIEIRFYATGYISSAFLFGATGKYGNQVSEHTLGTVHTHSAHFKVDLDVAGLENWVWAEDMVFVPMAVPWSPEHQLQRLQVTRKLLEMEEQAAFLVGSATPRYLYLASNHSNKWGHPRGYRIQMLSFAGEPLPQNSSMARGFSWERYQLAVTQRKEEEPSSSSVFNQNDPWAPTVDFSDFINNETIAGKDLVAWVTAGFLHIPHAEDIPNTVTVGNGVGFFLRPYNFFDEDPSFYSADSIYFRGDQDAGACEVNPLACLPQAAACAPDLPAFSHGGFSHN
Summary of the method: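 Enzyme in 50 mM sodium phosphate (pH 7.4) is exposed to test compound for 30 min at 37 °C. Benzylamine (1 mM) with HRP and Amplex Red then starts the reaction, and the fluorescence rate, relative to a DMSO-only control, gives IC50.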

[3] = target: T4, recombinant human DAO (diamine oxidase) (Homo sapiens, UniProt P19801); test: Activity on recombinant human DAO, Amplex Red method, 1 mM putrescine substrate; details: recombinant human DAO, 1 mM putrescine; * = between 10 and 100 nM, ** = between 300 and 1000 nM; read-out: Inhibitory Activity (IC50, nM) DAO
T4 construct: purchased R&D systems
T4 sequence (P19801 20-751): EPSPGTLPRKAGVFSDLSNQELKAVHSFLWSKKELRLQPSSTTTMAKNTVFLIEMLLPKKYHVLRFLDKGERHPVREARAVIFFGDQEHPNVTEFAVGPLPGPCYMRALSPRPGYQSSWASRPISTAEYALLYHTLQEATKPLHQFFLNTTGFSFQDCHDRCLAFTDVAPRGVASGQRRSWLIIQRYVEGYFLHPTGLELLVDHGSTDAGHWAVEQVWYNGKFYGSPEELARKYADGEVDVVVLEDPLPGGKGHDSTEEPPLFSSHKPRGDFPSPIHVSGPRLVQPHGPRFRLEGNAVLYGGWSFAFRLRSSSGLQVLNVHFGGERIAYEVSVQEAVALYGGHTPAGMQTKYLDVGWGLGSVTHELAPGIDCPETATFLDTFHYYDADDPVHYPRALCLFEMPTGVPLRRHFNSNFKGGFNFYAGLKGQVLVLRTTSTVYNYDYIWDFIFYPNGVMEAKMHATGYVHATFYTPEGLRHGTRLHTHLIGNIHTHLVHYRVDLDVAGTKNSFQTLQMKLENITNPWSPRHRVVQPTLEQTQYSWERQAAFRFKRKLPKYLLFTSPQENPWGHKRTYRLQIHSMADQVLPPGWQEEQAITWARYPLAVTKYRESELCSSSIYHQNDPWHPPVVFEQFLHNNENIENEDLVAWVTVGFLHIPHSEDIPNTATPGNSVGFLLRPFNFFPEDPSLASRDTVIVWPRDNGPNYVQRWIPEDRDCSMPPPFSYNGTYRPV
Summary of the method: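 Inhibition of recombinant human DAO (diamine oxidase, R&D systems) was assessed with the Amplex Red Hydrogen Peroxide Assay Kit. Hydrogen peroxide produced from 1 mM putrescine was detected through an HRP-coupled reaction that converts Amplex Red into fluorescent resorufin, read at 544 nm excitation and 590 nm emission. IC50 values came from four-parameter logistic fits in GraphPad Prism.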

Compound | IC50 [1] [nM] | IC50 [2] [nM] | IC50 (recombinant human VAP-1) [nM] | IC50 [3] [nM]
CC(C)c1nc(-c2cccc(-c3cccc(-n4cnn(C/C(=C/F)CN)c4=O)c3)c2)no1 [Example 65, 2-[(2E)-2-(aminomethyl)-3-fluoroprop-2-en-1-yl]-4-{3′-[5-(propan-2-yl)-1,2,4-oxadiazol-3-yl]biphenyl-3-yl}-2,4-dihydro-3H-1,2,4-triazol-3-one hydrochloride] | > 10000 | > 100000 | 0.93 | < 30
CS(=O)(=O)c1ccc(-c2ccc(-c3cccc(-n4cnn(C/C(=C/F)CN)c4=O)c3)cc2)cc1 [Example 66, 2-[(2E)-2-(aminomethyl)-3-fluoroprop-2-en-1-yl]-4-[4″-(methylsulfonyl)-1,1′:4′,1″-terphenyl-3-yl]-2,4-dihydro-3H-1,2,4-triazol-3-one hydrochloride] | > 10000 | > 100000 | 0.66 | 3.9
CS(=O)(=O)c1ccc(-c2cccc(-c3cccc(-n4cnn(C/C(=C/F)CN)c4=O)c3)c2)cc1 [Example 67, 2-[(2E)-2-(aminomethyl)-3-fluoroprop-2-en-1-yl]-4-[4″-(methylsulfonyl)-1,1′:3′,1″-terphenyl-3-yl]-2,4-dihydro-3H-1,2,4-triazol-3-one] | > 10000 | > 100000 | 0.77 | 11
CC(=O)Nc1ccc(-c2ccc(-c3cccc(-n4cnn(C/C(=C/F)CN)c4=O)c3)cc2)cc1 [Example 68, N-(3″-{1-[(2E)-2-(aminomethyl)-3-fluoroprop-2-en-1-yl]-5-oxo-1,5-dihydro-4H-1,2,4-triazol-4-yl}-1,1′:4′,1″-terphenyl-4-yl)acetamide hydrochloride] | > 10000 | 37800 | 0.82 | 2.7
CC(=O)Nc1ccc(-c2cccc(-c3cccc(-n4cnn(C/C(=C/F)CN)c4=O)c3)c2)cc1 [Example 69, N-(3″-{1-[(2E)-2-(aminomethyl)-3-fluoroprop-2-en-1-yl]-5-oxo-1,5-dihydro-4H-1,2,4-triazol-4-yl}-1,1′:3′,1″-terphenyl-4-yl)acetamide hydrochloride] | 1100 | 4910 | 0.63 | 11
NC/C(=C\F)Cn1ncn(-c2cccc(-c3ccc(-c4ccc5c(c4)OCO5)cc3)c2)c1=O [Example 70, 2-[(2E)-2-(aminomethyl)-3-fluoroprop-2-en-1-yl]-4-[4′-(1,3-benzodioxol-5-yl)biphenyl-3-yl]-2,4-dihydro-3H-1,2,4-triazol-3-one hydrochloride] | 1620 | > 100000 | 0.63 | < 30
NC/C(=C\F)Cn1ncn(-c2cccc(-c3cccc(-c4ccc5c(c4)OCO5)c3)c2)c1=O [Example 71, 2-[(2E)-2-(aminomethyl)-3-fluoroprop-2-en-1-yl]-4-[3′-(1,3-benzodioxol-5-yl)biphenyl-3-yl]-2,4-dihydro-3H-1,2,4-triazol-3-one hydrochloride] | 240 | 17300 | 1 | < 30

Results, then the compound that gave them:

IC50 [1] [nM] | IC50 [2] [nM] | IC50 (recombinant human VAP-1) [nM] | IC50 [3] [nM] | Compound
1460 | 4890 | 1.1 | 59 | CC(=O)N1CCN(c2ccc(-c3cccc(-n4cnn(C/C(=C/F)CN)c4=O)c3)cc2)CC1 [Example 72, 4-[4′-(4-acetylpiperazine-1-yl)biphenyl-3-yl]-2-[(2E)-2-(aminomethyl)-3-fluoroprop-2-en-1-yl]-2,4-dihydro-3H-1,2,4-triazol-3-one hydrochloride]
> 10000 | > 100000 | 0.98 | 67 | NC/C(=C\F)Cn1ncn(-c2cccc(-c3ccc(C4CCOCC4)cc3)c2)c1=O [Example 73, 2-[(2E)-2-(aminomethyl)-3-fluoroprop-2-en-1-yl]-4-[4′-(tetrahydro-2H-pyran-4-yl)biphenyl-3-yl]-2,4-dihydro-3H-1,2,4-triazol-3-one hydrochloride]
> 10000 | > 100000 | 0.84 | 282 | NC/C(=C\F)Cn1ncn(-c2cccc(-c3ccc(N4CCOCC4)cc3)c2)c1=O [Example 74, 2-[(2E)-2-(aminomethyl)-3-fluoroprop-2-en-1-yl]-4-[4′-(morpholin-4-yl)biphenyl-3-yl]-2,4-dihydro-3H-1,2,4-triazol-3-one hydrochloride]
> 10000 | > 100000 | 0.93 | < 100 | NC/C(=C\F)Cn1ncn(-c2cccc(-c3ccc(N4CCOCC4)c(F)c3)c2)c1=O [Example 75, 2-[(2E)-2-(aminomethyl)-3-fluoroprop-2-en-1-yl]-4-[3′-fluoro-4′-(morpholin-4-yl)biphenyl-3-yl]-2,4-dihydro-3H-1,2,4-triazol-3-one hydrochloride]
> 10000 | > 100000 | 0.64 | < 100 | NC/C(=C\F)Cn1ncn(-c2cccc(-c3ccc(N4CCOCC4)c(Cl)c3)c2)c1=O [Example 76, 2-[(2E)-2-(aminomethyl)-3-fluoroprop-2-en-1-yl]-4-[3′-chloro-4′-(morpholin-4-yl)biphenyl-3-yl]-2,4-dihydro-3H-1,2,4-triazol-3-one hydrochloride]

Source: patent publication US11492335B2, “Aryl or heteroaryl triazolone derivatives or salts thereof, or pharmaceutical compositions comprising the same” (YUHAN CORPORATION, priority 2018, dated 2022)
